In patent US11708393B2, “Targeted non-invasive imaging probes of EGFR expressing cells” (priority 2011, dated 2023):
“Also recorded” adds a separate entry of the source. Cy5.5 = cyanine fluorochrome label, coupled as NHS ester; AEEA = NCCOCCOCC(=O)O

What was measured:
[1] = system: Gli36Δ5 orthotopic brain tumors overexpressing EGFR; assay: Ex vivo fluorescence imaging of brains with orthotopic Gli36Δ5 tumors; format: in vivo, mice; settings: for accumulation in tumor, % of injected dose: 1 nmol/g tail vein, 1 hour, brains imaged ex vivo; for tumor targeting (in words): 1 nmol/g, ex vivo analysis of brain tissues
Procedure: NIH athymic nude female mice (5-8 weeks and 20-25 g upon arrival, NCI-NIH) were maintained at the Animal Resource Center at Case Western Reserve University (Cleveland, Ohio) according to institutional policies. Cell for brain implantation were harvested with 1 mL 0.05% trypsin-EDTA (Gibco) and briefly washed with PBS. Trypsin was inactivated by the addition of serum-containing media. The resulting cell suspension was centrifuged at […] for 3 minutes. The cell suspension was centrifuged and the supernatant was removed after 2 washes in PBS. Finally, the cells were resuspended in […] PBS for brain implants per animal (250,000 cells per animal for brain implants). Immediately following the cell harvesting procedure, animals were inoculated. For brain tumor implantation, mice were anesthetized by intraperitoneal (i.p.) injection of 50 mg/kg ketamine/xylazine and fitted into a stereotaxic rodent frame (David Kopf Instruments). A small incision was made just lateral to midline to expose bregma suture. A small (1.0 mm) burr hole was drilled at anterior (AP)=+1, lateral (ML)=−2.5 from the bregma. Glioblastoma cells were slowly deposited at a rate of 1 μL/min in the right striatum at a depth of 3 mm from dura with a 10-μL syringe (23-G needle). The needle was slowly withdrawn and the incision was closed with 2 to 3 sutures. Brain tumors grew for 10 to 12 days as per IACUC protocols at which point in vivo imaging studies were conducted. As control for the effects of surgical intervention, animals were also subjected to the implantation procedure but Optical Imaging of Tumors with EGFR Overexpression received 2 μL PBS (sham animals). Animals were fed exclusively on a special rodent diet (Harlan Laboratories, Inc.; Tekland 2018S) to reduce autofluorescence.
Mice bearing brain tumors derived from Gli36Δ5 or U87-MG cells were administered with compounds at 1 nmol/g via tail vein injection. In vivo competition assays were done with mixture of compound 2 and 10-fold concentration of nonlabeled probe 5. Before injection, mice were anesthetized with isoflurane and subjected to tomographic and spectral fluorescence imaging. One hour after injection, animals were re-imaged. Brains were then extracted and imaged. The excised brains were embedded in Tissue-Tek optimum cutting temperature for cryosections for immunohistochemistry (IHC). Fluorescence-mediated molecular tomography (FMT) images were obtained using FMT2500 (Perkin-Elmer), and 3-dimensional reconstructions of fluorescent signals were acquired using the accompanying software TrueQuant. Quantitative fluorescent signals for Cy5.5 of compound 2 were calibrated as per manufacturer's instructions using the 680-channel. Region of interest (ROI) assigned on the basis of the precise placement of cells during implantation at 3 to 4 mm into the brain. ROI was corroborated with fluorescent signals from ex vivo imaging. Fluorescent multispectral images were obtained using the Maestro In-Vivo Imaging System (CRi, Inc.). […] Fluorescence images were acquired before treatment, immediately after and 1.5 hours after treatment. To compare signal intensities, ROIs were selected over the tumor or nontumor areas, and the change in fluorescence signal over baseline was determined. […] The total signal in the ROI defined in photons measured at the surface of the animal was divided by the area (in pixels). Spectral libraries were generated by assigning spectral peaks to background and fluorescence probe on tissue. […]

[2] = biological target: T1, EGFR (Homo sapiens, UniProt P00533); assay: Saturation binding assay of Cy5.5-labeled peptides on Gli36Δ5 cells; settings: for Kd: 37° C., 90 minutes, read-out: apparent binding affinity Kd from saturation binding assay
T1 construct: endogenous in cells; host or cells: Gli36Δ5 human glioblastoma cells
Procedure: To determine binding affinities of the Cy5.5-labeled peptides 1 to 4 to EGFR, a saturation binding assay protocol using labeled fluorescence ligand against cell surface receptors was adapted as previously reported. Briefly, Gli36Δ5 cells were plated 20,000 cells per well were plated on black Costar 96-well plates (cat. no. 3603). Probes were diluted to range of concentration ([…]) in growing media with 0.3% bovine serum albumin (BSA) and added into wells and incubated at 37° C. for 90 minutes at 5% CO2. Cells were then washed with PBS twice and dried. DMSO was added before reading fluorescence (excitation 670 nm, emission 700 nm) with a Tecan Infinite M200 plate reader. Saturation binding assay data were in quadruplicates and analyzed using one site binding classical equation for nonlinear regression analysis with the GraphPad Prism version 4.0.
Binding affinity was determined with nonlinear regression analysis with one site binding hyperbola with an equation: […], where Bmax is the maximal binding site and the Kd is the concentration required to reach half-maximal binding. ANOVA analysis at 95% confidence interval (CI) was used to compare treatments (*, […]; confidence interval, ***, […]). To compare live animal FMT, nonparametric one-way ANOVA analyses (Kruskal-Wallis tests) and the median differences were considered significant with P=0.0220.

[3] = system: A431 cells (high wild-type EGFR); assay: Saturation binding and fluorescence uptake in A431 cells; format: cell-based, human; settings: A431 cells incubated with compound plus EGF ligand
Description: We also examined the expression of EGFRvIII in the cell lines. […] In addition, we examined A431 cells, a squamous carcinoma cell line, that expresses high levels of wild-type EGFR.

[4] = system: U87-MG orthotopic brain tumors; assay: In vivo FMT imaging of orthotopic U87-MG brain tumors; parameters: species or system mice
Procedure: (§1) NIH athymic nude female mice (5-8 weeks and 20-25 g upon arrival, NCI-NIH) were maintained at the Animal Resource Center at Case Western Reserve University (Cleveland, Ohio) according to institutional policies. Cell for brain implantation were harvested with 1 mL 0.05% trypsin-EDTA (Gibco) and briefly washed with PBS. Trypsin was inactivated by the addition of serum-containing media. The resulting cell suspension was centrifuged at […] for 3 minutes. The cell suspension was centrifuged and the supernatant was removed after 2 washes in PBS. Finally, the cells were resuspended in […] PBS for brain implants per animal (250,000 cells per animal for brain implants). […]
(§2) Mice bearing brain tumors derived from Gli36Δ5 or U87-MG cells were administered with compounds at 1 nmol/g via tail vein injection. […] Before injection, mice were anesthetized with isoflurane and subjected to tomographic and spectral fluorescence imaging. […] Fluorescence-mediated molecular tomography (FMT) images were obtained using FMT2500 (Perkin-Elmer), and 3-dimensional reconstructions of fluorescent signals were acquired using the accompanying software TrueQuant. Quantitative fluorescent signals for Cy5.5 of compound 2 were calibrated as per manufacturer's instructions using the 680-channel. […] Fluorescence images were acquired before treatment, immediately after and 1.5 hours after treatment. […]

[5] = In vivo FMT imaging of sham surgery animals; parameters: species or system mice
Procedure: as §1, §2

[6] = system: Gli36Δ5 cells; assay: Receptor uptake, cell-associated fluorescence in Gli36Δ5 cells; format: cell-based, human; settings: 1 μmol/L compound
Procedure: FIG. 2 illustrates a plot showing cell associated fluorescence measured using spectrofluorometry at the indicated times for Gli36Δ5 cells incubated with 1 μmol/L of compounds 1 to 4 [Cy5.5-(AEEA)n-EGFpep].
FIGS. 3(A-B) illustrate images showing Gli36Δ5 (A) and U87-MG (B) cells incubated with 1 μmol/L compounds for the indicated times. Uptake of the compounds was assessed using epifluorescence microscopy. Images were taken at ×40 magnification. Scale bar, 50 μm.
Gli36Δ5 or U87-MG cell lines plated in 96-well culture plates (20,000 cells per well; 3 wells per condition) were incubated over indicated time periods with […] of Cy5.5-labeled EGF peptides 2, 3, and 4 at 37° C. and 5% CO2. Cells were briefly rinsed with HEPES buffer and imaged with a Tecan Infinite M200 fluorescence plate reader (excitation 670 nm, emission 700 nm).

[7] = system: Gli36Δ5 orthotopic brain tumors; assay: In vivo FMT imaging of orthotopic Gli36Δ5 brain tumors; parameters: species or system mice
Procedure: as §1, §2

[8] = biological target: human epidermal growth factor receptor (EGFR) (human) (UniProt P00533); assay: cell-based or functional assay

Molecule | accumulation in tumor, % of injected dose [1] | tumor targeting (in words) [1] | binding affinity to the cells (in words) [2] | Kd [2] | cellular uptake / accumulation of fluorescence (in words) [6] | further results
Cy5.5-(AEEA)1-NYQTPVYGWIYH-amide ({Cy5.5-AEEA}-NYQTPVYGWIYH-NH2) [Compound 6, Cy5.5-labeled scrambled peptide, specificity control, reference compound] | 0.006 % of injected dose | did not target the tumor | – | – | – | –
Cy5.5-(AEEA)1-YHWYGYTPQNVI-amide [Compound 2] | 1.1 % of injected dose | targeted the tumor efficiently | micromolar range | 8.9 µM | greatest accumulation of fluorescence | cell fluorescence in the presence of EGF ligand (in words) [3]: increasing fluorescence in the presence of the EGF ligand; tumor targeting (in words) ([1]; listed as compound 2): targets the tumor significantly (***, P>0.0001) more efficiently than the scrambled peptide 6; fluorescence signal as injected dose ([4]; U87-MG brain tumors, 1 nmol/g, 1 hour, FMT): 0.27%; amount of fluorescence in matching ROI (FMT 3-dimensional reconstruction) ([4]; U87-MG tumor): 1,608 nmol/L; amount of fluorescence in matching ROI (FMT 3-dimensional reconstruction) [5]: 272 nmol/L; fluorescence signal as injected dose ([7]; Gli36Δ5 brain tumors, 1 nmol/g, 1 hour, FMT): 1.1%; amount of fluorescence in matching ROI (FMT 3-dimensional reconstruction) ([7]; Gli36Δ5 tumor): 9,271 nmol/L
Cy5.5-YHWYGYTPQNVI-amide [Compound 1] | – | – | micromolar range | 18.5 µM | Neither compound 1 (no linker) nor either of the molecules with greater linker numbers (compounds 3 and 4) was taken up by the cells to the same extent as compound 2 | –
Cy5.5-(AEEA)2-YHWYGYTPQNVI-amide [Compound 3] | – | – | micromolar range | 64.4 µM | Neither compound 1 (no linker) nor either of the molecules with greater linker numbers (compounds 3 and 4) was taken up by the cells to the same extent as compound 2 | –
Cy5.5-(AEEA)3-YHWYGYTPQNVI-amide [Compound 4] | – | – | micromolar range | 123 µM | Neither compound 1 (no linker) nor either of the molecules with greater linker numbers (compounds 3 and 4) was taken up by the cells to the same extent as compound 2; also recorded: taken up by cells better than compound 3 | –
NYQTPVYGWIYH (Cy5.5-(AEEA)1 at the N-terminus; C-terminal amide) [Compound 6: Cy5.5-(AEEA)1-…-amide scrambled] | – | – | – | – | – | percent of injected dose delivered to Gli36Δ5 brain tumor (% of injected dose) [8]: 0.006
